Test results from US20240408216A1, “PROTEIN INHIBITOR OR DEGRADING AGENT, PHARMACEUTICAL COMPOSITION CONTAINING SAME AND PHARMACEUTICAL USE” (JING MEDICINE TECHNOLOGY (SHANGHAI) LTD., priority 2021, published 2024).
Read-outs that look alike come from different tables or passages of the source.

Assays:
LT = experiment: Cell proliferation IC50 assay (Cell Titer GLO), LT cells; format: cell-based; conditions: Mus musculus; Table 7; LT cells (BaF3 with EGFR mutant), 72 h
Procedure: (§1) IC50 of compounds in the present invention was determined by Cell Titer GLO reagent from Promega. The procedures are as follows:
(§2) Tumor cells were cultured in specified medium in an incubator at 37° C. and 5% CO2. The cells were passaged periodically. Cells at the logarithmic growth phase were collected for plating at a density of 2000-4000 cells/well. The next day, the compounds of the present invention were serially diluted and added to the cells, with DMSO being the negative control and the culture media without cells being the blank control. The plate was incubated in the incubator for 72 h. The cell viability assay was performed by adding the detection reagents to the cell culture media according to Cell Titer GLO reagent instructions and detecting luminescent signals on an EnVision microplate reader (PerkinElmer).
(§3) Inhibition of cell growth by the compounds of the present invention was plotted by Prism Graphpad software for statistically calculating the IC50 of the compound of the present invention.

BaF3 patent = experiment: Cell proliferation IC50 assay (Cell Titer GLO), BaF3 parental cells; format: cell-based; conditions: Mus musculus, Table 5, 10 ng/ml mIL3, 72 h
Procedure: as §1, §2, §3

DT = experiment: Cell proliferation IC50 assay (Cell Titer GLO), DT cells; format: cell-based; conditions: Mus musculus; Table 7; DT cells (BaF3 with EGFR mutant), 72 h
Procedure: as §1, §2, §3

BaF3 (EGFR WT) = experiment: Cell proliferation IC50 assay (Cell Titer GLO), BaF3 WT cells; format: cell-based; conditions: Mus musculus, Ba/F3 EGFR, 72 h
Procedure, shortened: (§4)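 Log-phase cells seeded 2000-4000/well, serial compound dilutions added one day later; DMSO negative, medium-only blank.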

A431 = experiment: Cell proliferation IC50 assay (Cell Titer GLO), A431 cells; format: cell-based; conditions: Homo sapiens, A-431, A431, 72 h, read-out: A431 IC50
Procedure, shortened: as §4

[1] = test system: BaF3 (EGFR L858R/T790M/C797S); experiment: Cell proliferation IC50 assay (Cell Titer GLO), BaF3 LTC cells; format: cell-based; conditions: Mus musculus, Ba/F3 EGFR
Procedure, shortened: as §4

[2] = test system: BaF3 (EGFR Del19/T790M/C797S); experiment: Cell proliferation IC50 assay (Cell Titer GLO), BaF3 DTC cells; format: cell-based; conditions: Mus musculus, Ba/F3 EGFR-Del19/T790M/C797S
Procedure, shortened: as §4

human EGFR-LTC = biological target: T1, human EGFR-LTC (Homo sapiens, UniProt P00533, C797S/L858R/T790M); experiment: EGFR protein abundance assay (Western blotting), EGFR-LTC; format: cell-based; conditions: 24 h, Western blot
T1 construct: expressed in transfected cells
Procedure: (§5) Mouse Ba/F3 cells stably expressing human EGFR-DTC, EGFR-LTC, or EGFR-DC were transferred to Petri dishes with RPMI-1640 medium (Gibco, Product No. 11875093) containing 10% fetal bovine serum (FBS, Biological Industries, Product No. 04-001-1A) and 0.1% penicillin/streptomycin (P/S) and incubated in an aseptic incubator at 37° C., 95% relative humidity, and 5% CO2. Cells at the logarithmic growth phase were taken and seeded at a density of 50000 cells/well in 12-well plates (Corning, Product No. 3513) containing 1 mL of medium per well. After 24 h, the compounds disclosed herein with different concentrations were added to the wells at a final DMSO concentration of 0.1%. After 24 h, cells were lysed in SDS lysis buffer (1.45 g of SDS, 0.2 g of Tris base, 6 mL of glycerol, 20 mg of bromophenol blue, 310 mg DTT; brought to 40 mL with d2H2O), and the EGFR levels were detected and analyzed by Western Blotting (immunoblotting) using standard molecular biological techniques. Cell lysates were boiled at 95° C. for 8 min, mixed and centrifuged. The total cell proteins in the lysates were subjected to SDS-PAGE (GenScript, Product No. M00654), transferred to NC membranes (GE, Product No. 1060002) by blotting, incubated in a blocking buffer (TAKARA, Product No. T7131A) at room temperature for 60 min, and co-incubated overnight at 4° C. with the following primary antibodies: anti-EGFR (#4267S, 1:1000), anti-phoso-EGFR (#3777S, 1:1000), anti-GAPDH (#5174S, 1:10000), anti-Actin (#5125 S, 1:10000) (all purchased from Cell Signaling Technology). The samples were washed three times with TBST at room temperature, each for 10 min, and then incubated for 60 minutes in a blocking buffer containing a secondary antibody (#7074S, 1:10000, purchased from Cell Signaling Technology) at room temperature. The samples were washed three times with TBST at room temperature, each for 10 min. Chemiluminescent substrates were added, and an Azure c300 system was used for imaging.

human EGFR-DTC = experiment: EGFR protein abundance assay (Western blotting), EGFR-DTC; format: cell-based; conditions: Ba/F3 cells expressing human EGFR-DTC, 24 h, Western blot
Procedure: as §5

BaF3 (EGFR Del19) = BaF3 (EGFR Del19) (Homo sapiens, UniProt P00533, cells depend on it, form not given); experiment: Cell proliferation IC50 assay (Cell Titer GLO), BaF3 D cells; format: cell-based, mouse; conditions: Table 7, 72 h
Procedure: as §1, §2, §3

human EGFR-DC = experiment: EGFR protein abundance assay (Western blotting), EGFR-DC; format: cell-based; conditions: Ba/F3 cells expressing human EGFR-DC, 24 h, Western blot
Procedure: as §5

BaF3 (EGFR L858R/C797S) = BaF3 (EGFR L858R/C797S) (Homo sapiens, UniProt P00533, C797S/L858R, cells depend on it); experiment: Cell proliferation IC50 assay (Cell Titer GLO), BaF3 LC cells; format: cell-based, mouse; conditions: Table 7, 72 h
Procedure: as §1, §2, §3

BaF3 (EGFR Del19/C797S) = biological target: T2, BaF3 (EGFR Del19/C797S) (Homo sapiens, UniProt P00533, C797S, cells depend on it, form not given); experiment: Cell proliferation IC50 assay (Cell Titer GLO), BaF3 DC cells; format: cell-based, mouse; conditions: Table 7, 72 h
T2 construct: BaF3 (EGFR Del19/C797S)|DC|RPMI1640 + 10% FBS
Procedure, shortened: as §4

BaF3 (EGFR L858R) = BaF3 (EGFR L858R) (Homo sapiens, UniProt P00533, L858R, cells depend on it); experiment: Cell proliferation IC50 assay (Cell Titer GLO), BaF3 L cells; format: cell-based, mouse; conditions: Table 7, 72 h
Procedure: as §1, §2, §3

BaF3 (EGFR L858R/C797S), sequence (P00533 whole entry C797S/L858R): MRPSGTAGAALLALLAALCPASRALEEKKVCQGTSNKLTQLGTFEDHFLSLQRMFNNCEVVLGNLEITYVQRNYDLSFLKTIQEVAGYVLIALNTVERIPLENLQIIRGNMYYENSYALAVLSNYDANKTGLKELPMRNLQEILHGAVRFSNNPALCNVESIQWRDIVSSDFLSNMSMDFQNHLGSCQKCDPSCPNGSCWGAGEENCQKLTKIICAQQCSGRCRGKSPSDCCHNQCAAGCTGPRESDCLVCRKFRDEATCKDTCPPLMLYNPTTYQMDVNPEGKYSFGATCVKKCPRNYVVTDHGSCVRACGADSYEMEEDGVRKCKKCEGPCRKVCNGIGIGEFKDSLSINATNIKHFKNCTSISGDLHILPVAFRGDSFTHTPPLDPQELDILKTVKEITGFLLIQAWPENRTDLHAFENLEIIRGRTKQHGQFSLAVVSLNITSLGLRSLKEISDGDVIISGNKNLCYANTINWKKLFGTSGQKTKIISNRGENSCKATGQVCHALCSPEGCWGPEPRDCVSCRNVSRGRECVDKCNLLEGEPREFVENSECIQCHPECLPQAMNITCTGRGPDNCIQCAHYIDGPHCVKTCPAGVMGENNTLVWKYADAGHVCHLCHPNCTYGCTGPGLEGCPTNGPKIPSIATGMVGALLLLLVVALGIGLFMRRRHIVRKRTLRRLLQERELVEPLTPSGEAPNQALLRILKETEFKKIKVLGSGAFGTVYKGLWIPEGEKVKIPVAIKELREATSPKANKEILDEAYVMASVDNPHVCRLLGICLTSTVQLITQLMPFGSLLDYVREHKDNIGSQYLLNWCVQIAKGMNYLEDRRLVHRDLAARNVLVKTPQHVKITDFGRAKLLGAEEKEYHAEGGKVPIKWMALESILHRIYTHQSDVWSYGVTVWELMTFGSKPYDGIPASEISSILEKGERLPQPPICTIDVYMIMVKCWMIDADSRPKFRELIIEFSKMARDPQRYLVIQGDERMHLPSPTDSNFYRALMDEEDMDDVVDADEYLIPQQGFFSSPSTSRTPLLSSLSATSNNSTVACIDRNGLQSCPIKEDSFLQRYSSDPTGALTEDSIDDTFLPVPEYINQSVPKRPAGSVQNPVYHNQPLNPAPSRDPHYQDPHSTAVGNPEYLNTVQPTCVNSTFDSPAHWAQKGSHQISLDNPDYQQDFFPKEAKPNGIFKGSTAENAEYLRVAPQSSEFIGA
BaF3 (EGFR Del19), sequence (P00533 with tags, fused parts or gaps DEL746-750): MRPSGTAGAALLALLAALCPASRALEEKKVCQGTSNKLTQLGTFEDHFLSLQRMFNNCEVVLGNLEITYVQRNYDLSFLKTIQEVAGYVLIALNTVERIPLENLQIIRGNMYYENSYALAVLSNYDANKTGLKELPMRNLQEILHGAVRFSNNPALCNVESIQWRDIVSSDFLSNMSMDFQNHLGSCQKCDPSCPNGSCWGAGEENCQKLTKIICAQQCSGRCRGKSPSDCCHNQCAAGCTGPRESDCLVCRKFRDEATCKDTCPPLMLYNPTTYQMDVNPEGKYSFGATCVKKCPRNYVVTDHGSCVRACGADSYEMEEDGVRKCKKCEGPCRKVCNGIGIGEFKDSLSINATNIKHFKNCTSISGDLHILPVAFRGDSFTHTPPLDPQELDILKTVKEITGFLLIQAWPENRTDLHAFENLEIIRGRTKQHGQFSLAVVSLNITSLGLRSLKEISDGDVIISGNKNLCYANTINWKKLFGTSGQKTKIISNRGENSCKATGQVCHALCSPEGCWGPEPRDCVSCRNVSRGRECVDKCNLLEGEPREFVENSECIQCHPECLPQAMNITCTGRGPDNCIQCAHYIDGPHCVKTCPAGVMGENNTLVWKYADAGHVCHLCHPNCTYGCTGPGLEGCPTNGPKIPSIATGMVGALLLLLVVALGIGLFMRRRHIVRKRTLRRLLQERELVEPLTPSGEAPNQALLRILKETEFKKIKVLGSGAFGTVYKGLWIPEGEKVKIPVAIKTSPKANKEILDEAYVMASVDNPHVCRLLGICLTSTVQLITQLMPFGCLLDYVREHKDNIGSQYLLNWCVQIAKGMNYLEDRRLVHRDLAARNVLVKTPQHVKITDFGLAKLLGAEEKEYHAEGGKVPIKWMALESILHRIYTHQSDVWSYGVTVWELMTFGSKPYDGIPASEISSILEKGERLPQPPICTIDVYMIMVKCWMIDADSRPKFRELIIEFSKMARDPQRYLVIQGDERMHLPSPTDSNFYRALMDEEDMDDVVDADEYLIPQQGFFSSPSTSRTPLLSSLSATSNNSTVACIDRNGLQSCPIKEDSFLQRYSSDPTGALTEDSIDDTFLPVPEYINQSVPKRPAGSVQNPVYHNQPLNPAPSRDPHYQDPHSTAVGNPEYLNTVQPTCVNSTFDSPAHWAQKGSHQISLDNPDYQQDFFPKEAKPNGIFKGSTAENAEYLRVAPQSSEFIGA
T2 sequence (P00533 with tags, fused parts or gaps DEL746-750/C797S, form open): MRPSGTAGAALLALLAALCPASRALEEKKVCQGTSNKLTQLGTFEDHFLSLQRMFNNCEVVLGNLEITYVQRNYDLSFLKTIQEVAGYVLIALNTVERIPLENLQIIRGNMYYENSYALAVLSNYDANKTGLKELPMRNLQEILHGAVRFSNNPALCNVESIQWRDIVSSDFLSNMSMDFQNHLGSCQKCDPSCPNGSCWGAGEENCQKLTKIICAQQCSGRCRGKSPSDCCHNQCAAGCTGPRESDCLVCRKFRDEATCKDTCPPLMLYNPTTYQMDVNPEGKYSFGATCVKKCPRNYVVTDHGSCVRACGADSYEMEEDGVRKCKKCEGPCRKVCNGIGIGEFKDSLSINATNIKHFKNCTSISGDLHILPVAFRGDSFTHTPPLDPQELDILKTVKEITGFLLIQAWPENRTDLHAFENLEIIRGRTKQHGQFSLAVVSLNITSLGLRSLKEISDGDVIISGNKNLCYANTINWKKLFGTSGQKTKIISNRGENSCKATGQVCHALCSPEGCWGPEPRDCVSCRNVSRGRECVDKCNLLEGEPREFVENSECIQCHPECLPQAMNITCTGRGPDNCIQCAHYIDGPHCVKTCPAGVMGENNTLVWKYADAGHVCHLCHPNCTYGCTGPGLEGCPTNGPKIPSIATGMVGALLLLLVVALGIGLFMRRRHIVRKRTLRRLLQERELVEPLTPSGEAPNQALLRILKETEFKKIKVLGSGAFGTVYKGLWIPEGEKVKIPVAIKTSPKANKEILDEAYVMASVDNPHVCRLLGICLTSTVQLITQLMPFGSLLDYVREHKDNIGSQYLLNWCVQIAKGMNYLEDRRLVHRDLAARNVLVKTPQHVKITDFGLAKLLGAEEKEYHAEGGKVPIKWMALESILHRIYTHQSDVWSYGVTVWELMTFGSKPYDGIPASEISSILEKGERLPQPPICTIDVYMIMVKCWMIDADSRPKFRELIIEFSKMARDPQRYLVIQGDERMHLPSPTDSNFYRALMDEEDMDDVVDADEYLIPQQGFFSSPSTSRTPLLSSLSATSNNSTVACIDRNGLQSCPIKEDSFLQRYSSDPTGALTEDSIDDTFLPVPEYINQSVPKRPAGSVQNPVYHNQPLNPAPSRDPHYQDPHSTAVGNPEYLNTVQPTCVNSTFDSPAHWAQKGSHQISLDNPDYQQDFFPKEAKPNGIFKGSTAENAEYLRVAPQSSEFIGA
T1 sequence (P00533 25-1210 T790M/C797S/L858R): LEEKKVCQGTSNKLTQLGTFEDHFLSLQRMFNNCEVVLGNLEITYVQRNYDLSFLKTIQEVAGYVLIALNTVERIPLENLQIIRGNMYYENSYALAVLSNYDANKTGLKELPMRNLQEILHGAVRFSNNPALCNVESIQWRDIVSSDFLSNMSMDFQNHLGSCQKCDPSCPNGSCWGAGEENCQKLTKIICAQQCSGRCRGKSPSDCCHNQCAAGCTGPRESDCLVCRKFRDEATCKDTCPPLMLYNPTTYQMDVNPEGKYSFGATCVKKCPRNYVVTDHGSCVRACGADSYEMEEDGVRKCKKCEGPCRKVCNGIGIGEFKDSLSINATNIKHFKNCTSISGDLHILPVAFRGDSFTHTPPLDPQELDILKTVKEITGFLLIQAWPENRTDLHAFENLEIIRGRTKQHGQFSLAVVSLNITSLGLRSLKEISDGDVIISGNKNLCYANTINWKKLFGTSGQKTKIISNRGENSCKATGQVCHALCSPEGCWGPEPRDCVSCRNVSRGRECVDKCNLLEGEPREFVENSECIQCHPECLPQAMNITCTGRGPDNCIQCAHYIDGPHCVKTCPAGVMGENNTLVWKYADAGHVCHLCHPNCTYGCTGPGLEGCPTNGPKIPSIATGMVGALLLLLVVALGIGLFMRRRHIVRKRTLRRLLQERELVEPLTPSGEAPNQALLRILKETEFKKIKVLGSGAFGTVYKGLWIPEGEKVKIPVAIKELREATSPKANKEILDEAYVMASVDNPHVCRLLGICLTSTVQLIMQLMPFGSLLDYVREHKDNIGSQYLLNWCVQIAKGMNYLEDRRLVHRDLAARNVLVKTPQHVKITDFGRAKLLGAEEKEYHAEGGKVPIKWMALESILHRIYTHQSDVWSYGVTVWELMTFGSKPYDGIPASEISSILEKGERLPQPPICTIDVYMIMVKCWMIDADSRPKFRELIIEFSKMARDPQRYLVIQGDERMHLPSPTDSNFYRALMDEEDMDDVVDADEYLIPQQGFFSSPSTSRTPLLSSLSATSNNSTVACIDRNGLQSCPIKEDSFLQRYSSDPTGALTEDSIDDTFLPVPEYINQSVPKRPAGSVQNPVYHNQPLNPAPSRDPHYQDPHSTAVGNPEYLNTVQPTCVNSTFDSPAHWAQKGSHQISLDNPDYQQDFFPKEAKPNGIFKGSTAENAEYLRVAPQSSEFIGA

Structure (SMILES)	IC50 (LT)	IC50 (BaF3 patent)	IC50 (DT)	IC50 (BaF3 (EGFR WT); Table 5, 10 ng/ml EGF)	IC50 (A431; Table 5)	IC50 ([1]; Table 5, 72 h)	IC50 ([2]; Table 5, 72 h)	other results
COc1cc(N2CCC(N3CCN(CCC#Cc4cccc5c4CN(C4CCC(=O)NC4=O)C5=O)CC3)CC2)ccc1Nc1ncc(Cl)c(Nc2ccccc2P(C)(C)=O)n1 (centres unmarked) [Example C-2, reference compound]	20.9 nM	73.8 nM	13.3 nM	–	–	–	–	–
CP(C)(=O)c1ccccc1Nc1nc(Nc2ccc(N3CCC(N4CCN(CCC#Cc5cccc6c5CN(C5CCC(=O)NC5=O)C6=O)CC4)CC3)c(Cl)c2)ncc1Cl (centres unmarked) [Example E17]	–	23.4 nM	–	25.1 nM	283 nM	15.5 nM	3.7 nM	–
CCc1cc(Nc2ncc(Cl)c(Nc3ccccc3P(C)(C)=O)n2)c(OC)cc1N1CCC(N2CCN(CCOc3cccc4c3CN(C3CCC(=O)NC3=O)C4=O)CC2)CC1 (centres unmarked) [Example E95]	3.5 nM	–	4 nM	–	–	–	–	DC50 (human EGFR-LTC; Ba/F3 cells expressing human EGFR-LTC): 2.13 nM; Dmax (human EGFR-LTC; BaF3, Ba/F3 cells expressing human EGFR-LTC): 94%; DC50 (human EGFR-DTC): 3.02 nM; EGFR-DTC Dmax (human EGFR-DTC): 91%; IC50 (BaF3 (EGFR WT); Table 6, 10 ng/ml EGF): ≥ 1820 nM; GI50 (BaF3 (EGFR Del19)): 0.8 nM; DC50 (human EGFR-DC): 10.1 nM; EGFR-DC Dmax (human EGFR-DC): 98%; GI50 (BaF3 (EGFR L858R/C797S)): 16.9 nM; IC50 (A431; Table 6): 1730 nM; IC50 ([1]; Table 6, 72 h): 48.4 nM; IC50 (BaF3 (EGFR Del19/C797S)): 1.3 nM; GI50 (BaF3 (EGFR L858R)): 6.6 nM; IC50 ([2]; Table 6, 72 h): 5.37 nM
CCc1cc(Nc2ncc(Cl)c(Nc3ccccc3P(C)(C)=O)n2)c(OC)cc1N1CCC2(CCN(CCCCC#Cc3cccc4c3CN(C3CCC(=O)NC3=O)C4=O)CC2)CC1 (centres unmarked) [Example E23]	–	> 4000 nM	–	> 4000 nM	> 4000 nM	106 nM	9.4 nM	–
COc1cc(N2CCC3(CCN(CCCC#Cc4cccc5c4CN(C4CCC(=O)NC4=O)C5=O)CC3)CC2)ccc1Nc1ncc(Cl)c(Nc2ccccc2P(C)(C)=O)n1 (centres unmarked) [Example C-1, reference compound]	–	376 nM	–	380 nM	2820 nM	199 nM	28 nM	–
CCc1cc(Nc2ncc(Cl)c(Nc3ccccc3P(C)(C)=O)n2)c(OC)cc1N1CCC(N2CC3(CCC(Oc4cccc5c4CN(C4CCC(=O)NC4=O)C5=O)CC3)C2)CC1 (centres unmarked) [Example E29]	–	1370 nM	–	1000 nM	1020 nM	20.9 nM	14 nM	–
COc1cc(N2CCC3(CCN(CCCC#Cc4cccc5c4CN(C4CCC(=O)NC4=O)C5=O)CC3)CC2)c(C)cc1Nc1ncc(Br)c(Nc2ccc3ccccc3c2P(C)(C)=O)n1 (centres unmarked) [Example E12]	36 nM	> 4000 nM	24.8 nM	> 4000 nM	> 4000 nM	111 nM	18.3 nM	GI50 (BaF3 (EGFR Del19)): 7.8 nM; GI50 (BaF3 (EGFR L858R/C797S)): 106 nM; IC50 (BaF3 (EGFR Del19/C797S)): 16.2 nM; GI50 (BaF3 (EGFR L858R)): 37.8 nM
